In patent publication US20180340156A1, “PURIFICATION OF A SOLUBLE AND ACTIVE FORM OF ASPARTATE N-[…]” (The University of Toledo, priority 2015, published 2018):
Entries after “also recorded” stand apart in the source; their conditions may differ.

What was measured:
MBP-ANAT fusion enzyme [1] = target: T1, MBP-ANAT fusion enzyme (Homo sapiens, UniProt Q8N9F0); test: DTNB-based ANAT enzyme activity assay, substrate kinetics; assay type: biochemical; settings: for catalytic efficiency as alternative substrate relative to physiological substrate: alternative acetyl group acceptor vs L-aspartate; for alternative substrate activity: screen of amino acid library of 160 compounds
T1 construct: the full length ANAT enzyme has been expressed and purified in a fusion construct with MBP; made in house; host or cells: E. coli NiCo21(DE3)
T1 sequence (Q8N9F0 1-302): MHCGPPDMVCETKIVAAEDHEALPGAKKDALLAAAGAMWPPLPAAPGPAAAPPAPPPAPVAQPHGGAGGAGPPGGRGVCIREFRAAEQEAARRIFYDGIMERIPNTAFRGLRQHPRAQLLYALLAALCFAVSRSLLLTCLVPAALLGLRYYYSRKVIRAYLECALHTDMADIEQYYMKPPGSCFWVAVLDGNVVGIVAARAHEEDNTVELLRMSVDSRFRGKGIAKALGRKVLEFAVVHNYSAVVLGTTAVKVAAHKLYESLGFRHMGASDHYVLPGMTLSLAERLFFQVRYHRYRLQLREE
Method: (§1) The ANAT activity was measured by an established DTNB-based assay in which the coenzyme A product participates in a thiol exchange reaction with DTNB. This assay is illustrated in FIGS. 4A-4B. The resulting TNB^2− ion was monitored at 412 nm (c=14.15 mM^−1cm^−1) using a SpectraMax 190 spectrophotometer plate reader (Molecular Devices, CA).
(§2) The DTNB-based assay was used to measure the kinetic parameters for the physiological substrates and some alternative ANAT substrates.
The kinetic parameters for the physiological substrates of ANAT were determined using the assay described above by varying the concentrations of both substrates and fitting the data to the equation for a sequential kinetic mechanism (eq. 1). […] A screen for alternative substrates was conducted using a customized amino acid library containing a total of 160 compounds.

membrane-bound ANAT = target: T2, membrane-bound ANAT (Homo sapiens, UniProt Q8N9F0); test: Detergent solubilization/extraction of native ANAT from membrane fraction
T2 construct: polyhistidine tag (C); made in house; host or cells: E. coli BL21(DE3), membrane fraction
T2 sequence (Q8N9F0 1-302): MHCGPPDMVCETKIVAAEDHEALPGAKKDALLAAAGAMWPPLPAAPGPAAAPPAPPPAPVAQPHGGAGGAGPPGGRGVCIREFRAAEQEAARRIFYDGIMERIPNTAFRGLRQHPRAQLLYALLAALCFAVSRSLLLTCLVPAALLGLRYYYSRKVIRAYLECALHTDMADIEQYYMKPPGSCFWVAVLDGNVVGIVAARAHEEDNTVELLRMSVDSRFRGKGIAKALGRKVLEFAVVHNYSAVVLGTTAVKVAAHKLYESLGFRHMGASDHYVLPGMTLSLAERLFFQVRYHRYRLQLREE
Method: The human nat8l gene was cloned into the pETDEST42 plasmid using the Gateway cloning technology (Life Technologies). This plasmid was used to transform E. coli BL21(DE3) cells for protein production. The cells were grown at 37° C. to an A600 of 0.6-0.8 in Luria-Bertani (LB) medium containing 100 μg/mL ampicillin, and gene expression was then induced with 1 mM isopropyl […] (IPTG) at 28° C. for 5 hours. The cell pellet was resuspended in buffer A [50 mM HEPES, 500 mM NaCl and 10% glycerol (pH 7.4)] and lysed by sonication on ice for 8 min with 30 s pulse on and 2 min pulse off cycle. The cell lysate was centrifuged at 11,000 rpm for 30 minutes to pellet cell debris and unlysed cells. The membrane fraction was collected by high-speed centrifugation of the supernatant at 40,000 rpm for 1 h. Solubilization trials of ANAT from the membrane fraction were conducted with a variety of different detergents that include ionic, non-ionic, and zwitterionic detergents. Twenty microliter aliquots of the resuspended membrane fraction were mixed with different amounts of stock detergent solutions each prepared at 10 times their critical micelle concentration (CMC), leading to a final concentration of 1.5×CMC and […]. These solutions were incubated at room temperature for 1 h or at 4° C. overnight in a rocking platform.

MBP-ANAT fusion enzyme [2] = target: T1, MBP-ANAT fusion enzyme; test: Effect of detergents on ANAT activity (DTNB-based assay, saturating substrates); assay type: biochemical; settings: incubation with detergent at CMC
Method: This assay is illustrated in FIGS. 4A-4B.
(§3) The effect of detergent properties on ANAT activity was tested using a variety of different detergents, each at their critical micelle concentration (CMC) levels. All measurements were conducted at least in duplicate by using the DTNB-based assay at saturating substrates levels. The effect of an organic solvent on ANAT activity was also evaluated by varying the DMSO concentration in the assay from 0 to 50%. To test the stability of the purified MBP-ANAT-his construct, the enzyme was stored at 4° C. for several days and activity was monitored daily. To test for the optimal long term storage conditions, the enzyme activity was followed through multiple freeze-thaw cycles between −80° C. and room temperature.

[3] = target: ANAT fusion enzyme with GST (Homo sapiens, UniProt Q8N9F0); settings: L-aspartate as substrate
Method: as §1, §2

[4] = substrate: CC(=O)SCCNC(=O)CCNC(=O)[C@H](O)C(C)(C)COP(=O)(O)OP(=O)(O)OC[C@H]1O[C@@H](n2cnc3c(N)ncnc32)[C@H](O)[C@@H]1OP(=O)(O)O; test: purified protein, by the assay type; settings: other: acetyl-CoA as substrate, MBP-ANAT fusion, sequential mechanism fit, pH 7.4
[5] = Enzyme stability on storage at 4° C. and freeze-thaw cycles; assay type: physicochemical; settings: stored at 4° C. for several days to one week, assayed daily
Method: as §3

Question: Which “catalytic efficiency as alternative substrate relative to physiological substrate” value (MBP-ANAT fusion enzyme [1]) does the source give for NC(C(=O)O)C(N)C(=O)O (stereo not drawn) [2,3-diaminosuccinate] here?
Answer: less than 10%

Question: With CCCCCCCCCCCCOCCOCCOCCOCCOCCOCCOCCOCCO [C12E8] as the molecule, how does the “extraction efficiency of membrane-bound ANAT” value (membrane-bound ANAT; non-ionic detergents, 1.5 CMC) read?
Answer: highest extraction efficiency

Question: For OC[C@H]1O[C@H](O[C@H]2[C@H](O)[C@@H](O)[C@H](OCCCCCC3CCCCC3)O[C@@H]2CO)[C@H](O)[C@@H](O)[C@@H]1O [Cymal 5], which “loss of catalytic activity” value (MBP-ANAT fusion enzyme [2]) is on record?
Answer: significant loss of activity

Question: And the “extraction efficiency of membrane-bound ANAT” value (membrane-bound ANAT; 8.7 CMC)?
Answer: effective

Question: With CCCCCCCCCCCCO[C@@H]1O[C@H](CO)[C@@H](O[C@H]2O[C@H](CO)[C@@H](O)[C@H](O)[C@H]2O)[C@H](O)[C@H]1O [DDM] as the molecule, how does the “extraction efficiency of membrane-bound ANAT” value (membrane-bound ANAT; 8.7 CMC) read?
Answer: effective

Question: For N[C@@H](CC(=O)O)C(=O)O [L-aspartate], which Km (MBP-ANAT fusion enzyme [1]; L-aspartate as substrate, MBP-ANAT fusion, sequential mechanism fit, pH 7.4) is on record?
Answer: 160 µM

Question: And the Km [3]?
Answer: 100 µM

Question: Which “catalytic efficiency as alternative substrate relative to physiological substrate” value (MBP-ANAT fusion enzyme [1]) does the source give for N[C@@H](CCC(=O)O)C(=O)O [L-glutamate] here?
Answer: less than 1%

Question: What about the “alternative substrate activity” value (MBP-ANAT fusion enzyme [1]) of the same molecule?
Answer: profound loss of activity

Question: Which “loss of catalytic activity” value (MBP-ANAT fusion enzyme [2]) does the source give for CCCCCCCCCCCC[N+](C)(C)[O-] [LDAO] here?
Answer: nearly complete loss of catalytic activity

Question: For CCCCCCCCCCCCOS(=O)(=O)[O-].[Na+] [SDS], which “loss of catalytic activity” value (MBP-ANAT fusion enzyme [2]) is on record?
Answer: nearly complete loss of catalytic activity

Question: With CCCCCCCCO[C@@H]1O[C@H](CO)[C@@H](O)[C@H](O)[C@H]1O [octylglucoside] as the molecule, how does the “loss of catalytic activity” value (MBP-ANAT fusion enzyme [2]) read?
Answer: significant loss of activity

Question: For CC(C(=O)O)[C@H](N)C(=O)O (stereo partly drawn) [β-methylaspartate], which “alternative substrate activity” value (MBP-ANAT fusion enzyme [1]) is on record?
Answer: best of these few alternative substrates; also recorded: profound loss of activity

B1: MBP-ANAT fusion enzyme (Homo sapiens) (protein)
chain: MHCGPPDMVCETKIVAAEDHEALPGAKKDALLAAAGAMWPPLPAAPGPAAAPPAPPPAPVAQPHGGAGGAGPPGGRGVCIREFRAAEQEAARRIFYDGIMERIPNTAFRGLRQHPRAQLLYALLAALCFAVSRSLLLTCLVPAALLGLRYYYSRKVIRAYLECALHTDMADIEQYYMKPPGSCFWVAVLDGNVVGIVAARAHEEDNTVELLRMSVDSRFRGKGIAKALGRKVLEFAVVHNYSAVVLGTTAVKVAAHKLYESLGFRHMGASDHYVLPGMTLSLAERLFFQVRYHRYRLQLREE
Question: With B1 as the molecule, how does the Km [4] read?
Answer: 3.1 µM

B2: native enzyme: human aspartate N-acetyltransferase without the MBP fusion domain (protein, UniProt Q8N9F0 1-302, looked up)
N-acetylaspartate synthetase: MHCGPPDMVCETKIVAAEDHEALPGAKKDALLAAAGAMWPPLPAAPGPAAAPPAPPPAPVAQPHGGAGGAGPPGGRGVCIREFRAAEQEAARRIFYDGIMERIPNTAFRGLRQHPRAQLLYALLAALCFAVSRSLLLTCLVPAALLGLRYYYSRKVIRAYLECALHTDMADIEQYYMKPPGSCFWVAVLDGNVVGIVAARAHEEDNTVELLRMSVDSRFRGKGIAKALGRKVLEFAVVHNYSAVVLGTTAVKVAAHKLYESLGFRHMGASDHYVLPGMTLSLAERLFFQVRYHRYRLQLREE
Question: With B2 as the molecule, how does the “loss of activity on storage” value [5] read?
Answer: substantial loss of catalytic activity
